Measured values as given in patent US20220088121A1, “COMPOSITIONS CONTAINING A PEPTIDE ABLE TO STIMULATE THE GPRC6A-DEPENDENT SIGNALING PATHWAY” (Altergon S.A., priority 2019, published 2022).

How the values were obtained:
[1] = test system: INS-1 rat insulinoma cells; assay: Insulin release from INS-1 insulinoma cell cultures; type: cell-based; settings: experimental models of cell line cultures
Protocol: INS-1 rat insulinoma cells, cultured to 90% confluence in 24-well multiwell plates, were stimulated with different combinations of secretagogue agonists for 2 hours at 37° C. under sterile conditions, according to an already validated protocol [Hohmeier Diabetes. […] Stimulation with the phosphodiesterase inhibitor IBMX (Gluc 1 mM+IBMX) represents the maximum secretagogue stimulation and positive control of the experiment. […] Significance: *, ** and ***=P<0.05, 0.01 and 0.001 respectively vs the baseline control.

[2] = test system: MA-10 mouse Leydig cell tumour cell lines; assay: Testosterone release from MA-10 mouse Leydig-cell tumour cell cultures; type: cell-based; settings: experimental models of cell line cultures; Example 1: peptide 10^−6M, 12 hours at 37° C. (FIG. 1)
Protocol: MA-10 mouse Leydig-cell tumour cells, cultured to 90% confluence in 24-well multiwell plates, were stimulated with different agonists for 12 hours at 37° C. under sterile conditions, according to an already validated protocol [Cormier Cell Biol Toxicol. […] The control (CTRL) contained no agonists. The results relate to testosterone release, expressed as ng of testosterone (T) per μg of total protein, obtained from cell extract. […] Significance: *=P<0.05 vs. CTRL.
MA-10 mouse Leydig-cell tumour cells, cultured to 90% confluence in 24-well multiwell plates, were stimulated with different agonists for 12 hours at 37° C. under sterile conditions, according to an already validated protocol [Cormier Cell Biol Toxicol. […] Significance: *, ** and ***=P<0.05, 0.01 and 0.001 respectively vs the baseline control.

## NMYLPPVPPPPVVPTF [SEQ ID 1]
[1]
  insulin release: stimulates
[2]
  testosterone release: stimulates
